Measurements reported in ChEMBL document CHEMBL1201862, “PubChem BioAssay data set” (2004).
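Protocol summary: plate cells (96-well), add compound at 5 concentrations, incubate 48 h, interpolate endpoints linearly. Abbreviation: GI50, concentration required for 50% inhibition of growth.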 Active and inactive are the calls of the source. Cut-off read from the data, not from the text of the source: active = GI50 up to about 1.1 µM and inactive = higher.

Key:
Test in all cases: growth of human tumour cells (NCI), 48 h
NCI-H460 = system: NCI-H460
NCI-H226 = system: NCI-H226
SNB-75 = system: SNB-75
SN12C = system: SN12C
SK-OV-3 = system: SK-OV-3
SNB-19 = system: SNB-19
COLO 205 = system: COLO 205
786-0 = system: 786-0
HCT-15 = system: HCT-15
A549 = system: A549
UO-31 = system: UO-31
MDA-MB-231 = system: MDA-MB-231
BT-549 = system: BT-549
T47D = system: T47D
OVCAR-5 = system: OVCAR-5
HT-29 = system: HT-29
U-251 = system: U-251
SF-539 = system: SF-539
OVCAR-3 = system: OVCAR-3
UACC-257 = system: UACC-257
EKVX = system: EKVX
NCI-H522 = system: NCI-H522
IGROV-1 = system: IGROV-1
HOP-62 = system: HOP-62
K562 = system: K562
KM12 = system: KM12
A498 = system: A498
UACC-62 = system: UACC-62
NCI/ADR-RES = system: NCI/ADR-RES
SW-620 = system: SW-620
Hs-578T = system: Hs-578T
MOLT-4 = system: MOLT-4
CAKI-1 = system: CAKI-1
MDA-N = system: MDA-N
TK-10 = system: TK-10
ACHN = system: ACHN
LOX IMVI = system: LOX IMVI
RXF 393 = system: RXF 393
OVCAR-8 = system: OVCAR-8
OVCAR-4 = system: OVCAR-4
SF-295 = system: SF-295
HL-60 = system: HL-60
SK-MEL-5 = system: SK-MEL-5
RPMI-8226 = system: RPMI-8226
SF-268 = system: SF-268
M14 = system: M14
MCF7 = system: MCF7
HOP-92 = system: HOP-92
PC-3 = system: PC-3
CCRF-CEM = system: CCRF-CEM
HCT-116 = system: HCT-116
MDA-MB-435 = system: MDA-MB-435
NCI-H23 = system: NCI-H23
DU-145 = system: DU-145
HCC 2998 = system: HCC 2998
SR = system: SR
SK-MEL-2 = system: SK-MEL-2
SK-MEL-28 = system: SK-MEL-28
Malme-3M = system: Malme-3M

Compound: Cc1ccc(S(=O)(=O)NC(=O)C2C(=O)CC3(CCCCC3)CC2=O)cc1
- GI50 (NCI-H460): 25.2 µM (inactive)
- GI50 (NCI-H226): 34.8 µM (inactive)
- GI50 (SNB-75): 51.4 µM (inactive)
- GI50 (SN12C): 30.8 µM (inactive)
- GI50 (SK-OV-3): 28.2 µM (inactive)
- GI50 (SNB-19): 41.5 µM (inactive)
- GI50 (COLO 205): 17.9 µM (inactive)
- GI50 (786-0): 25.9 µM (inactive)
- GI50 (HCT-15): 23.2 µM
- GI50 (A549): 33.3 µM (inactive)
- GI50 (UO-31): 22.4 µM (inactive)
- GI50 (MDA-MB-231): 36.1 µM (inactive)
- GI50 (BT-549): 27.5 µM (inactive)
- GI50 (T47D): 20 µM (inactive)
- GI50 (OVCAR-5): 24.4 µM (inactive)
- GI50 (HT-29): 32.7 µM (inactive)
- GI50 (U-251): 38.4 µM (inactive)
- GI50 (SF-539): 30.7 µM (inactive)
- GI50 (OVCAR-3): 29 µM (inactive)
- GI50 (UACC-257): 28.6 µM (inactive)
- GI50 (EKVX): 25.4 µM (inactive)
- GI50 (NCI-H522): 23.8 µM (inactive)
- GI50 (IGROV-1): 29.4 µM (inactive)
- GI50 (HOP-62): 25.4 µM (inactive)
- GI50 (K562): 38.1 µM (inactive)
- GI50 (KM12): 19.6 µM (inactive)
- GI50 (A498): 28.4 µM (inactive)
- GI50 (UACC-62): 31.3 µM (inactive)
- GI50 (NCI/ADR-RES): 19.7 µM (inactive)
- GI50 (SW-620): 27.6 µM (inactive)
- GI50 (Hs-578T): 41.9 µM (inactive)
- GI50 (MOLT-4): 42.4 µM (inactive)
- GI50 (CAKI-1): 26.4 µM (inactive)
- GI50 (MDA-N): 29.3 µM (inactive)
- GI50 (TK-10): 23.5 µM (inactive)
- GI50 (ACHN): 22.9 µM (inactive)
- GI50 (LOX IMVI): 55.2 µM (inactive)
- GI50 (RXF 393): 38.3 µM (inactive)
- GI50 (OVCAR-8): 27.7 µM (inactive)
- GI50 (OVCAR-4): 32.4 µM (inactive)
- GI50 (SF-295): 22 µM (inactive)
- GI50 (HL-60): 29.5 µM (inactive)
- GI50 (SK-MEL-5): 25.4 µM (inactive)
- GI50 (RPMI-8226): 23.1 µM (inactive)
- GI50 (SF-268): 34.8 µM (inactive)
- GI50 (M14): 34.5 µM (inactive)
- GI50 (MCF7): 22.8 µM (inactive)
- GI50 (HOP-92): 14.8 µM (inactive)
- GI50 (PC-3): 25.6 µM (inactive)
- GI50 (CCRF-CEM): 27.3 µM (inactive)
- GI50 (HCT-116): 25.9 µM (inactive)
- GI50 (MDA-MB-435): 32.1 µM (inactive)
- GI50 (NCI-H23): 46 µM (inactive)
- GI50 (DU-145): 37.5 µM (inactive)

Compound: COC(=O)C12OC(C)(C(CC(=O)OC(C)(C)C)C1=O)C1C(=O)N(c3ccccc3)C(=O)C12 (stereo not given)
- GI50 (HCC 2998): > 100 µM (inactive)
- GI50 (NCI-H460): > 100 µM (inactive)
- GI50 (NCI-H226): > 100 µM (inactive)
- GI50 (SNB-75): > 100 µM (inactive)
- GI50 (SN12C): > 100 µM (inactive)
- GI50 (SK-OV-3): > 100 µM (inactive)
- GI50 (SNB-19): > 100 µM (inactive)
- GI50 (COLO 205): > 100 µM (inactive)
- GI50 (786-0): > 100 µM (inactive)
- GI50 (HCT-15): > 100 µM
- GI50 (A549): > 100 µM (inactive)
- GI50 (UO-31): > 100 µM (inactive)
- GI50 (SR): > 100 µM (inactive)
- GI50 (MDA-MB-231): > 100 µM (inactive)
- GI50 (BT-549): > 100 µM (inactive)
- GI50 (T47D): > 100 µM (inactive)
- GI50 (OVCAR-5): > 100 µM (inactive)
- GI50 (SK-MEL-2): > 100 µM (inactive)
- GI50 (HT-29): > 100 µM (inactive)
- GI50 (U-251): > 100 µM (inactive)
- GI50 (OVCAR-3): > 100 µM (inactive)
- GI50 (UACC-257): > 100 µM (inactive)
- GI50 (NCI-H522): > 100 µM (inactive)
- GI50 (IGROV-1): > 100 µM (inactive)
- GI50 (HOP-62): > 100 µM (inactive)
- GI50 (K562): > 100 µM (inactive)
- GI50 (KM12): > 100 µM (inactive)
- GI50 (A498): > 100 µM (inactive)
- GI50 (UACC-62): > 100 µM (inactive)
- GI50 (NCI/ADR-RES): > 100 µM (inactive)
- GI50 (SW-620): > 100 µM (inactive)
- GI50 (Hs-578T): > 100 µM (inactive)
- GI50 (MOLT-4): > 100 µM (inactive)
- GI50 (CAKI-1): > 100 µM (inactive)
- GI50 (SK-MEL-28): > 100 µM (inactive)
- GI50 (MDA-N): > 100 µM (inactive)
- GI50 (TK-10): > 100 µM (inactive)
- GI50 (ACHN): > 100 µM (inactive)
- GI50 (LOX IMVI): > 100 µM (inactive)
- GI50 (RXF 393): > 100 µM (inactive)
- GI50 (OVCAR-8): > 100 µM (inactive)
- GI50 (OVCAR-4): > 100 µM (inactive)
- GI50 (SF-295): > 100 µM (inactive)
- GI50 (SK-MEL-5): > 100 µM (inactive)
- GI50 (RPMI-8226): > 100 µM (inactive)
- GI50 (SF-268): > 100 µM (inactive)
- GI50 (M14): > 100 µM (inactive)
- GI50 (Malme-3M): > 100 µM (inactive)
- GI50 (HOP-92): > 100 µM (inactive)
- GI50 (PC-3): > 100 µM (inactive)
- GI50 (CCRF-CEM): > 100 µM (inactive)
- GI50 (HCT-116): > 100 µM (inactive)
- GI50 (MDA-MB-435): > 100 µM (inactive)
- GI50 (NCI-H23): > 100 µM (inactive)
- GI50 (DU-145): > 100 µM (inactive)

Compound: C[N+](C)(C)C1=NNC2=Nc3ccccc3SC2=C1
- GI50 (HCC 2998): 24.4 µM (inactive)
- GI50 (NCI-H460): 19 µM (inactive)
- GI50 (NCI-H226): 11.8 µM (inactive)
- GI50 (SN12C): 21.9 µM (inactive)
- GI50 (SK-OV-3): 23.6 µM (inactive)
- GI50 (SNB-19): 26.5 µM (inactive)
- GI50 (COLO 205): 15 µM (inactive)
- GI50 (786-0): 20.1 µM (inactive)
- GI50 (HCT-15): 17.5 µM
- GI50 (A549): 23.9 µM (inactive)
- GI50 (UO-31): 15 µM (inactive)
- GI50 (MDA-MB-231): 14.6 µM (inactive)
- GI50 (BT-549): 28.6 µM (inactive)
- GI50 (T47D): 4.11 µM (inactive)
- GI50 (OVCAR-5): 17.7 µM (inactive)
- GI50 (SK-MEL-2): 14.1 µM (inactive)
- GI50 (HT-29): 13.5 µM (inactive)
- GI50 (U-251): 18.6 µM (inactive)
- GI50 (OVCAR-3): 19.3 µM (inactive)
- GI50 (UACC-257): 23 µM (inactive)
- GI50 (EKVX): 4.92 µM (inactive)
- GI50 (NCI-H522): 15.9 µM (inactive)
- GI50 (IGROV-1): 17 µM (inactive)
- GI50 (HOP-62): 22.8 µM (inactive)
- GI50 (K562): 17.9 µM (inactive)
- GI50 (KM12): 23.9 µM (inactive)
- GI50 (A498): 26.4 µM (inactive)
- GI50 (UACC-62): 17 µM (inactive)
- GI50 (NCI/ADR-RES): 16.1 µM (inactive)
- GI50 (SW-620): 24.4 µM (inactive)
- GI50 (Hs-578T): 30 µM (inactive)
- GI50 (MOLT-4): 13 µM (inactive)
- GI50 (CAKI-1): 32.3 µM (inactive)
- GI50 (SK-MEL-28): 19.4 µM (inactive)
- GI50 (MDA-N): 17.8 µM (inactive)
- GI50 (TK-10): 37.1 µM (inactive)
- GI50 (ACHN): 16 µM (inactive)
- GI50 (LOX IMVI): 18.8 µM (inactive)
- GI50 (RXF 393): 20.4 µM (inactive)
- GI50 (OVCAR-8): 18.4 µM (inactive)
- GI50 (OVCAR-4): 19.7 µM (inactive)
- GI50 (SF-295): 9.42 µM (inactive)
- GI50 (HL-60): 54.1 µM (inactive)
- GI50 (SK-MEL-5): 15.1 µM (inactive)
- GI50 (RPMI-8226): 12.9 µM (inactive)
- GI50 (SF-268): 35 µM (inactive)
- GI50 (M14): 15.7 µM (inactive)
- GI50 (MCF7): 18.6 µM (inactive)
- GI50 (Malme-3M): 19.8 µM (inactive)
- GI50 (HOP-92): 12.1 µM (inactive)
- GI50 (PC-3): 15.1 µM (inactive)
- GI50 (CCRF-CEM): 11.7 µM (inactive)
- GI50 (HCT-116): 13.9 µM (inactive)
- GI50 (MDA-MB-435): 22.2 µM (inactive)
- GI50 (NCI-H23): 28.9 µM (inactive)
- GI50 (DU-145): 27.6 µM (inactive)
